Laboratory results published in patent US10426751B2, “Allosteric activators for treatment of phenylketonuria” (MCMASTER UNIVERSITY, priority 2015, dated 2019).

Experiments:
[1] = target: T1, PAH (Mus musculus, UniProt P16331); settings: cited from earlier work
T1 construct: inducing a 2-fold enhancement in PAH activity in WT mouse liver; host or cells: liver of WT mice
T1 sequence (P16331 1-453): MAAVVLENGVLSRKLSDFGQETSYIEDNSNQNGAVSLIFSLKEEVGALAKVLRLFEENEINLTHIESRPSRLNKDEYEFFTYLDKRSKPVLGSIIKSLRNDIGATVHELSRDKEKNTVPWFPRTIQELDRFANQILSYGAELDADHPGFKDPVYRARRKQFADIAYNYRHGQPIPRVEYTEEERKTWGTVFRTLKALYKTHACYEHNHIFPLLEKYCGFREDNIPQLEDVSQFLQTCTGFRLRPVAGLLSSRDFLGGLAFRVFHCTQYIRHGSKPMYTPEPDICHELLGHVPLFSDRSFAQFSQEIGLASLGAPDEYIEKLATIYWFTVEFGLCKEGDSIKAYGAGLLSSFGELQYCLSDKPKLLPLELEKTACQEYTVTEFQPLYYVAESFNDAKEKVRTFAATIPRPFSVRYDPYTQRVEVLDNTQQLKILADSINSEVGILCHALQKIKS

[2] = target: T2, PAH (Homo sapiens, UniProt P00439); settings: 100 μM; cited from earlier work
T2 sequence (P00439 1-452): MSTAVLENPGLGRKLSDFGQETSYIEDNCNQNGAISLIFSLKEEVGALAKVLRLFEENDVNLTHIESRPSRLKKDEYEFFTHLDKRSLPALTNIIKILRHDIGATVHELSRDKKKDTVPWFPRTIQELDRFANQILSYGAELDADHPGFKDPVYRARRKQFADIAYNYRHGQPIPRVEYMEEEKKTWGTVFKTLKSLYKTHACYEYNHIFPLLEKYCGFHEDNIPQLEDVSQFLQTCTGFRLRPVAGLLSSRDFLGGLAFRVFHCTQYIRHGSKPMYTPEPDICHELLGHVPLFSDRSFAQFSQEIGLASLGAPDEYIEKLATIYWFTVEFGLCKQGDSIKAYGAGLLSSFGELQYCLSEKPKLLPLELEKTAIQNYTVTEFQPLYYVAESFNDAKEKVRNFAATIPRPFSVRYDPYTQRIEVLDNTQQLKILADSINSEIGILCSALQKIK

[3] = target: T3, WT-PAH (Homo sapiens, UniProt P00439); test: Primary screen (READ): ligand-induced stabilization of PAH activity in 8 M urea, Tyr formation by CE-UV; type: biochemical; settings: 8 M urea, ligand 20 μM; ligand-free enzyme (7±0.5) %
T3 construct: made in house; the paragraph itself says 'eukaryotic cell cultures' (pMAL vector, Martinez laboratory, University of Bergen)
T3 sequence (P00439 1-452): T2 sequence (P00439 1-452)
Procedure: Tetrameric human phenylalanine hydroxylase (PAH) enzyme kinetic assays were performed off-line under standardized conditions prior to quantification of Tyr formation by CE with UV detection. Enzyme assays were performed by first mixing together Phe (1 mM), catalase (100 nM) and PAH (0.25 μM/subunit) in a reaction buffer (20 mM HEPES and 200 mM NaCl, pH 7.0) that were equilibrated at 25° C. for 4 min. Then, ferrous (Fe^2+) ammonium sulfate (100 μM) was added to the solution for 1 min and the reaction was subsequently initiated by addition of BH4 ([…]) with DTT (5 mM) using a total volume of 100 μL. The reaction mixture was then vortexed for 60 s followed by sonication for 2 min prior to centrifugation for 10 s at 4 g and storage in a refrigerator (+4° C.). An aliquot (20 μL) was withdrawn from the quenched enzyme reaction and placed in a micro vial containing Me-Tyr as IS (100 μM) prior to CE analysis. The stability of the quenched enzyme reaction was confirmed by intermittent analysis of PAH activity over 6 h at room temperature, and no significant changes in the Tyr/IS or Phe/Tyr response ratio were measured. Enzymatic reactions were performed for both WT-PAH and two PAH mutants by pre-equilibrating each ligand for 10 min prior to addition of ferrous ion and BH4/DDT as described in enzyme reaction protocol in order to assess for ligand-induced PAH inhibition or activation.
Unlike thermal stability assays that can induce protein aggregation, chemical denaturants are more suitable as perturbants to promote unfolding and enzyme inactivation while solubilizing multimeric proteins. In this context, restoration of enzyme activity upon denaturation (READ) was first introduced to characterize PCs that stabilize yet enhance the activity of a lysosomal enzyme, β-glucocerebrosidase (GCase). Herein, READ was modified, further optimized and validated for primary screening of PCs for the cytosolic enzyme (PAH) using a chemical library containing structurally unique compounds with drug-like activity. For instance, the primary screen was used to measure ligand-induced stabilization of PAH by extrinsic small molecules that impart greater resistance to urea unfolding as compared to ligand-free apo-enzyme conditions. PAH activity was first examined as a function of urea concentration (0 to 8 M) and pre-equilibration time (10 min to 2 hr) in order to determine optimum conditions where residual enzyme activity was largely attenuated below 10% due to protein unfolding. Protein unfolding was performed in triplicate offline with the enzyme reaction buffer (20 mM HEPES and 200 mM NaCl, pH 7.0) using tetrameric human PAH (1 μM and/or 0.1 μM) or mutant PAH (1 μM and/or 0.1 μM) incubated 10 min in 0 M or 8 M urea in the presence or absence of ligand (20 μM). Dose-response studies (0, 2.0 and 20 μM) were subsequently performed in triplicate on screen-positive compounds using re-synthesized ligands in order to further validate initial screen results. In all cases, quenched enzyme reactions were processed as described previously prior to CE analysis. PAH activity measurements based on Tyr formation at 8M urea with the presence or absence of PC were normalized to 0 M urea for each aliquot enzyme reaction to minimize long-term variation, which also enables direct comparison of the ligand-induced stabilization activity under denaturing conditions (8M urea) while confirming inhibition and activation effects for ligands under native conditions (0 M urea).

[4] = target: T3, WT-PAH; test: Chaperone (refolding) assay: PAH activity after dilution from 6.0 M to 0.5 M GndCl; type: biochemical; settings: ligand 20 μM
Procedure: For instance, a recovery of 50% of residual enzyme activity was achieved without ligand when PAH was incubated in 8.0 M urea after its dilution to 0.5 M urea to trigger protein refolding. In order to further reduce enzyme reversibility, the recovery of PAH activity was subsequently assessed when it was incubated using 6.0 M GndCl for 10 min and subsequently diluted to 0.5 M GndCl in the presence or absence of screen-positive ligands (20 μM) in enzyme reaction buffer with PAH activity measurements performed by CE as described previously. […] Two lead compounds and several analogs of SA were subsequently tested using two different mutants of PAH (I65T and R261Q) without chemical denaturants after the two-tiered screening.

PAH residual activity (% of WT-PAH) [3] [%] | increase in WT-PAH activity after refolding relative to ligand-free apo-PAH [4] | SMILES | enhancement in PAH activity in WT mouse liver [1] [fold] | shift of denaturation temperature relative to ligand-free enzyme [2]
19 | about 5 fold | Nc1c(-c2ccc3ccccc3n2)c2ccc([N+](=O)[O-])cc2c(=O)n1Cc1ccccc1 [compound III, 3-amino-2-benzyl-7-nitro-4-(2-quinolyl)-1,2-dihydroisoquinolin-1-one] | 2 | greater than 14 °C
9 | ~1.5 fold | Cc1ccnc(-n2c(=S)[nH]c3sc(C)c(C)c3c2=O)c1 [compound IV, 5,6-dimethyl-3-(4-methyl-2-pyridinyl)-2-thioxo-2,3-dihydrothieno[2,3-d] pyrimidin-4(1H)-one] | 2 | > 7 °C
